From article PMC10256634, “Comparative in vivo toxicokinetics of silver powder, nanosilver and soluble silver compounds after oral administration to rats” (Archives of Toxicology, 2023)

Tests used:
[1] = Total Ag content in tissues after 28 days repeated oral dosing (ICP-MS); type: in vivo, Sprague–Dawley rats
Source text: (§1) Comparative TK data for the various test items were obtained after single doses, and repeated dose administration for 28 days. This was based on measurement of Ag levels in whole blood at various timepoints, and also total Ag content in tissues (in the repeated dose study phase). This approach facilitated a direct quantitative comparison of parameters such as bioavailability, achieved systemic exposure and the delivered Ag dose to tissues after administration of the different Ag test items. Determination of single-dose p.o. and i.v. blood-level profiles was intended to provide information on absolute bioavailability (F value). Parallel vehicle control groups were included within each phase.
Following final blood sampling, animals were euthanised using carbon dioxide asphyxiation, with subsequent exsanguination, prior to macroscopic examination for the investigation of any abnormalities. Tissues for analysis of total Ag content were obtained from animals administered the test items for 28 days. The tissue set comprised: brain (whole), bone marrow (from both femurs), small intestine (duodenum/ileum/jejenum), liver, spleen, ovaries, testes (excluding epididymides) and uterus. The luminal contents of GI tract samples were thoroughly flushed out with cold purified water. After weighing, tissues were retained frozen (− 20 °C).
Analysis occurred within the 48-day assured stability period.
All bioanalytical methods underwent validation before deployment.

[2] = Toxicokinetics after single oral gavage dose, total Ag in whole blood (ICP-MS)
[3] = Absolute bioavailability (F value) from single-dose oral and i.v. blood AUC; type: in vivo, Sprague–Dawley rats; settings: single-dose oral vs i.v. AUC; data not shown
Protocol: as §1, with “All in vivo and analytical experimental segments were performed in accordance with Good Laboratory Practice standards (OECD [1998]) and the adopted TK experimental design conformed to approaches set out in OECD TG 417 ([2010]). Comparative” for “Comparative”
Animals (4 per sex/per treatment level) received test item via i.v. injection or oral gavage administration. Intravenous injection (bolus) was via the tail vein. Oral gavage administration was performed using a suitable graduated syringe and a rubber catheter. Dosing volumes for i.v. and oral administration were calculated based on the individual animal bodyweights.

[4] = Toxicokinetics after 28 days repeated oral gavage dosing, total Ag in whole blood (ICP-MS); settings: for AUC0-t: 0 to 96 h post-dose
[5] = 28 d oral 5 mg/kg bw/d [Ag equivalent 3.25 AgAc, 3.2 AgNO3]
[6] = 28 d oral 5 mg/kg bw/d [Ag equivalent 3.25 AgAc, 3.2 AgNO3], female
[7] = 28 d oral 5 mg/kg bw/d [Ag equivalent 3.25 AgAc, 3.2 AgNO3], male
[8] = 28 d oral 125 [80 Ag] mg/kg bw/d
[9] = 28 d oral 125 [80 Ag] mg/kg bw/d, female
[10] = 28 d oral 125 [80 Ag] mg/kg bw/d, male
[11] = single oral dose 5 mg/kg bw [Ag equivalent 3.25 AgAc, 3.2 AgNO3], female
[12] = single oral dose 5 mg/kg bw [Ag equivalent 3.25 AgAc, 3.2 AgNO3], male
[13] = single oral dose 125 [80 Ag] mg/kg bw, female
[14] = single oral dose 125 [80 Ag] mg/kg bw, male

In the case of `O=[N+]([O-])[O-].[Ag+]` [AgNO3, silver(I) nitrate], the “Silver level in ovary” value [1, 5] is reported as 1484 ng Ag/g tissue, the “Silver level in testis” value [1, 5] is reported as 231 ng Ag/g tissue and the “Silver level in uterus” value [1, 5] is reported as 145 ng Ag/g tissue. The “Silver level in GI tract” value [1, 6] was 2438 ng Ag/g tissue, the “Silver level in bone marrow” value [1, 6] was 87 ng Ag/g tissue and the “Silver level in brain” value [1, 6] was 177 ng Ag/g tissue. The “Silver level in liver” value [1, 6] was 130 ng Ag/g tissue, the “Silver level in spleen” value [1, 6] was 722 ng Ag/g tissue and the “Silver level in GI tract” value [1, 7] was 1310 ng Ag/g tissue. For the same compound, the “Silver level in bone marrow” value [1, 7] was 73 ng Ag/g tissue, the “Silver level in brain” value [1, 7] was 142 ng Ag/g tissue and the “Silver level in liver” value [1, 7] was 81.7 ng Ag/g tissue. For the same compound, the “Silver level in spleen” value [1, 7] was 404 ng Ag/g tissue, the “Silver level in ovary” value [1, 8] was 44025 ng Ag/g tissue and the “Silver level in testis” value [1, 8] was 1464 ng Ag/g tissue. For the same compound, the “Silver level in uterus” value [1, 8] was 22466 ng Ag/g tissue, the “Silver level in GI tract” value [1, 9] was 14798 ng Ag/g tissue and the “Silver level in bone marrow” value [1, 9] was 25200 ng Ag/g tissue. The “Silver level in brain” value [1, 9] was 1019 ng Ag/g tissue, the “Silver level in liver” value [1, 9] was 16024 ng Ag/g tissue and the “Silver level in spleen” value [1, 9] was 62335 ng Ag/g tissue. For the same compound, the “Silver level in GI tract” value [1, 10] was 10592 ng Ag/g tissue, the “Silver level in bone marrow” value [1, 10] was 46553 ng Ag/g tissue and the “Silver level in brain” value [1, 10] was 1091 ng Ag/g tissue. For the same compound, the “Silver level in liver” value [1, 10] was 28859 ng Ag/g tissue, the “Silver level in spleen” value [1, 10] was 54070 ng Ag/g tissue and the “AUC0-t” value [2, 11] was 4610 ng·h/mL. For the same compound, the “AUC(0–24)” value [2, 11] was 1740 ng·h/mL, the Cmax [2, 11] was 109 ng/mL and the Tmax [2, 11] was 3.25 h. For the same compound, the t1/2 [2, 11] was 30.8 h, the “AUC0-t” value [2, 12] was 1550 ng·h/mL and the “AUC(0–24)” value [2, 12] was 994 ng·h/mL. For the same compound, the Cmax [2, 12] was 62.5 ng/mL, the Tmax [2, 12] was 2.5 h and the t1/2 [2, 12] was 18.7 h. For the same compound, the “AUC0-t” value [2, 13] was 18,700 ng.h/mL, the “AUC(0–24)” value [2, 13] was 7670 ng·h/mL and the Cmax [2, 13] was 421 ng/mL. The Tmax [2, 13] was 15 h, the t1/2 [2, 13] was 31.7 h and the “AUC0-t” value [2, 14] was 19,400 ng.h/mL. For the same compound, the “AUC(0–24)” value [2, 14] was 5970 ng·h/mL, the Cmax [2, 14] was 348 ng/mL and the Tmax [2, 14] was 21 h. The t1/2 [2, 14] was 37.6 h, the “absolute bioavailability (F value)” value [3] was ≤ 5% and the AUC0-t [4, 6] was 7690 ng·h/mL. For the same compound, the AUC0-t [4, 7] was 5470 ng·h/mL, the Cmax [4, 6] was 177 ng/mL and the Tmax [4, 6] was 6 h. For the same compound, the t1/2 [4, 6] was 37.5 h, the Cmax [4, 7] was 132 ng/mL and the Tmax [4, 7] was 4.5 h. The t1/2 [4, 7] was 42.1 h, the AUC0-t [4, 9] was 54,100 ng.h/mL and the AUC0-t [4, 10] was 42,800 ng.h/mL. The Cmax [4, 9] was 997 ng/mL, the Tmax [4, 9] was 18 h and the t1/2 [4, 9] was 39.8 h. The Cmax [4, 10] was 738 ng/mL, the Tmax [4, 10] was 12 h and the t1/2 [4, 10] was 42.0 h.
